What was measured:
Type in all cases: physicochemical
[1] = Evaluation of UV absorption performance (1): absorbance spectra in chloroform; conditions: 100 μM; for Absorbance at absorption peak in wavelength region of 350 to 390 nm / Absorbance at peak end / Absorption wavelength at peak end / Molar extinction coefficient at peak (maximum molar extinction coefficient: εmax) / Wave length at absorption peak in wavelength region of 350 to 390 nm (maximum absorption wavelength: λmax): 10-mm quartz cell
Method: Compounds 1 to 12 were diluted with 100 μM of chloroform, placed in a 10-mm quartz cell, and the absorbance spectra were measured using an ultraviolet-visible spectrophotometer (V-550, manufactured by JASCO Corporation)(FIGS. 1 to 12).
The absorption peak (maximum absorption wavelength: λmax) and absorbance in the wavelength range of 350 to 390 nm were read from the absorption spectra of Compounds 1 to 12, and the molar extinction coefficient of the peak (maximum molar extinction coefficient: εmax) was obtained by the following equation (able 1). Molar extinction coefficient:εmax(L/(mol·cm))=A:Absorbance/[c:Mol concentration(mol/L)×1:Cell optical length(cm)] [Equation 1]
In addition, from the absorption spectra of Compounds 1 to 12, assuming that an intersection of a long-wavelength side absorption spectrum in the absorption peak at 350 to 390 nm and a baseline (a line where the slope of the absorption spectrum at 380 to 500 nm is zero) is set as a […] (for example: FIG. 1), the absolute value of the slope of the absorption peak on the long-wavelength side in the wavelength region at 350 to 390 nm was obtained by the following equation: |Slope of absorption peak on long wavelength side in wavelength region of 350 to 390 nm|=|(Absorbance at peak end−Absorbance at absorption peak in wavelength region of 350 to 390 nm)/(Absorption wavelength at peak end−Wave length at absorption peak in wavelength region of 350 to 390 nm)| [Equation 2]

[2] = Maximum solubility in various monomers; conditions: acrylonitrile as a vinyl-based monomer; same evaluation method
Excerpt: With the same evaluation method, 2 wt % of Compound 1, 5 wt % of Compound 2, 5 wt % of Compound 3, and 1 wt % of Compound 4 were each soluble in acrylonitrile as a vinyl-based monomer as well.

[3] = Evaluation of 5% weight reduction temperature (1) (TG/DTA); conditions: temperature increasing rate 10° C./min, 25° C. to 550° C.
Method: Compounds 1 to 8 and 10 to 12 were measured using a differential thermogravimetric simultaneous measurement device (TG/DTA6200, manufactured by SII Corporation) at a temperature increasing rate of 10° C./min and within a measurement range of 25° C. to 550° C., and the temperature at which 5 wt % reduction as the weight change (TG) took place was read (Table 6).

[4] = Maximum solubility in various monomers; conditions: room temperature (20 to 30° C.), 4 hours
[5] = Evaluation of UV absorption performance (2): absorbance spectra in chloroform; conditions: 100 μM
Method: Compounds 11 to 28 were diluted with 100 μM of chloroform and placed in a 10-mm quartz cell, and the absorbance spectra were measured using an ultraviolet-visible spectrophotometer (V-550, manufactured by JASCO Corporation)(FIGS. 11,12,14 to 29).
The absorption peak (maximum absorption wavelength: max) and absorbance in the wavelength range of 350 to 390 nm were read from the absorption spectra of Compounds 11 to 28, and a molar extinction coefficient (maximum molar extinction coefficient: εmax) of the peak was obtained by the following formula (Table 7): Molar extinction coefficient:εmax(L/(mol·cm))=A:Absorbance/[c:Mol concentration(mol/L)×1:Cell optical length(cm)] [Equation 3]
In addition, from the absorption spectra of Compounds 11 to 28, assuming that an intersection of a long-wavelength side absorption spectrum in the absorption peak at 350 to 390 nm and a baseline (a line where the slope of the absorption spectrum at […] is zero) is set as a peak end (for example: FIG. 1), the absolute value of the slope of the absorption peak on the long-wavelength side in the wavelength region at 350 to 390 nm was obtained by the following equation (Table 8): |Slope of absorption peak on long wavelength side in wavelength region of 350 to 390n|=|(Absorbance at peak end−Absorbance at absorption peak in wavelength region of 350 to 390 nm)/(Absorption wavelength at peak end−Wave length at absorption peak in wavelength region of 350 to 390 nm)| [Equation 4]

[6] = Evaluation of 5% weight reduction temperature (2) (TG/DTA); conditions: temperature increasing rate 10° C./min, 25° C. to 550° C.
Method: The compounds of the present invention were measured using a differential thermogravimetric simultaneous measurement device (TG/DTA6200, manufactured by SII Corporation) at a temperature increasing rate of 10° C./min and within a measurement range of 25° C. to 550° C., and the temperature at which 5 w % reduction as the weight change (TG) took place was read (Table 9).

Compound	Absorbance at absorption peak in wavelength region of 350 to 390 nm [1]	Absorbance at peak end [1]	Absorption wavelength at peak end [1] [nm]	Molar extinction coefficient at peak (maximum molar extinction coefficient: εmax) [1] [L/mol/cm]	Wave length at absorption peak in wavelength region of 350 to 390 nm (maximum absorption wavelength: λmax) [1] [nm]	Concentration soluble in acrylonitrile [2] [wt %]	5% weight reduction temperature [3] [°C]	Maximum solubility ([4]; Dimethylacrylamide) [wt %]	Maximum solubility ([4]; Hexadiene) [wt %]	Maximum solubility ([4]; Methyl (meth)acrylate) [wt %]	Maximum solubility ([4]; Styrene) [wt %]	Maximum solubility ([4]; Vinyl acetate) [wt %]	Absolute value of slope of absorption peak on long wavelength side in wavelength region of 350 to 390 nm ([1]; Equation 2)	Absorbance at absoprtion peak in wavelength region of 350 to 390 nm ([5]; 10-mm quartz cell)	Absorbance at peak end ([5]; 10-mm quartz cell)	Absorption wavelength at peak end ([5]; 10-mm quartz cell) [nm]	Molar extinction coefficient at peak (maximum molar extinction coefficient: εmax) ([5]; 10-mm quartz cell) [L/mol/cm]	Wave length at absorption peak in wavelength region of 350 to 390 nm (maximum absorption wavelength: λmax) ([5]; 10-mm quartz cell) [nm]	Absolute value of slope of absorption peak on long wavelength side in wavelength region of 350 to 390 nm ([5]; Equation 4)	5% weight reduction temperature [6] [°C]
C=C(C)C(=O)OCCCSc1ccc2nn(-c3cc(C)cc(C(C)(C)C)c3O)nc2c1 [Compound 3]	2.18	0.00692	419	21600	367	5	292	11	5	20	25	12	–	–	–	–	–	–	–	–
Cc1cc(-n2nc3ccc(Cl)cc3n2)c(O)c(C(C)(C)C)c1 [Compound 12, reference compound]	1.53	0.00617	423	15300	353	–	230	–	–	–	–	–	0.022	1.76	0.00722	430	16300	353	0.032	230
CCCCCCSc1ccc2nn(-c3cc(C)cc(C(C)(C)C)c3O)nc2c1 [Compound 29]	–	–	–	–	–	–	–	–	–	–	–	–	–	–	–	–	–	–	–	277
Cc1ccc(Sc2ccc3nn(-c4cc(C)cc(C(C)(C)C)c4O)nc3c2)cc1 [Compound 30]	–	–	–	–	–	–	–	–	–	–	–	–	–	–	–	–	–	–	–	293

Reference: US11795151B2, “Benzotriazole compound” (MIYOSHI OIL & FAT CO., LTD., priority 2017, dated 2023)
